Source: ChEMBL document CHEMBL3132769, “Fragment growing to retain or alter the selectivity of anchored kinase hinge-binding fragments” (Medchemcomm, 2014)

Legend:
[1] = target: T1, Testis-specific serine/threonine-protein kinase 1 (Homo sapiens) (UniProt Q9BXA7); experiment: Inhibition of human full length TSSK1 expressed in baculovirus assessed as substrate phosphorylation using fluorescence-labelled peptides as substrate at 0.2 uM after 90 mins by microfluidic peptide phosphorylation assay
T1 sequence (whole entry): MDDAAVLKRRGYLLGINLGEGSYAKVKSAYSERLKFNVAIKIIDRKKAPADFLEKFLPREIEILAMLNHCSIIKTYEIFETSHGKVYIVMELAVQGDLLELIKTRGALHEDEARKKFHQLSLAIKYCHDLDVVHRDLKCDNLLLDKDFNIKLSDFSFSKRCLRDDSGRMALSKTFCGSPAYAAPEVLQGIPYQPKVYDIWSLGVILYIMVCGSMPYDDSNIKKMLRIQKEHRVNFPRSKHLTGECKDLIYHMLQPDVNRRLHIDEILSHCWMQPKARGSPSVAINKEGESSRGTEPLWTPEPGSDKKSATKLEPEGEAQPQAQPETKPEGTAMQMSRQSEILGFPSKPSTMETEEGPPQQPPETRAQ

[2] = target: T2, Serine/threonine-protein kinase BRSK1 (Homo sapiens) (UniProt Q8TDC3); experiment: Inhibition of human full length BRSK1 expressed in baculovirus assessed as substrate phosphorylation using fluorescence-labelled peptides as substrate at 2 uM after 90 mins by microfluidic peptide phosphorylation assay
T2 sequence (whole entry): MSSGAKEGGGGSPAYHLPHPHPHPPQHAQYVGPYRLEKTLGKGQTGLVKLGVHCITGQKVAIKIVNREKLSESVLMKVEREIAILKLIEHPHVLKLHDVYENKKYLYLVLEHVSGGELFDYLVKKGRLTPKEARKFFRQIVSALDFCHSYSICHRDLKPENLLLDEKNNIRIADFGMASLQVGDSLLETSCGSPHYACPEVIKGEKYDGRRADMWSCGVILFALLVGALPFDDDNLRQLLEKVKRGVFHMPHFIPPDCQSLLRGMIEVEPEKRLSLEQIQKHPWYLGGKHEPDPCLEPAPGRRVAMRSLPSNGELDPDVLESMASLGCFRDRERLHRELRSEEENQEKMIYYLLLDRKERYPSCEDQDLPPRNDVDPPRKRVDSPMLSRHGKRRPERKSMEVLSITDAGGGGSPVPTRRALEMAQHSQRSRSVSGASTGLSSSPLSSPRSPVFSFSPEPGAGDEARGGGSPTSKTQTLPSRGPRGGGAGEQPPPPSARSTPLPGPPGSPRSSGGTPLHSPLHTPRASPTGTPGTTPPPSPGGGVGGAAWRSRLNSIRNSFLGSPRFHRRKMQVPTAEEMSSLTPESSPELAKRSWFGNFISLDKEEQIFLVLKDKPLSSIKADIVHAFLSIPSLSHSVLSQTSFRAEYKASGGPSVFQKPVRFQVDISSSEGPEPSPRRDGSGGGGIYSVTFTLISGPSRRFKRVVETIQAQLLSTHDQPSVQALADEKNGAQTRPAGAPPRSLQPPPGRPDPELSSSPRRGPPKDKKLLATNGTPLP

[3] = target: T3, Calcium/calmodulin-dependent protein kinase type IV (Homo sapiens) (UniProt Q16566); experiment: Inhibition of human full length CAMK4 expressed in baculovirus assessed as substrate phosphorylation using fluorescence-labelled peptides as substrate at 2 uM after 90 mins by microfluidic peptide phosphorylation assay
T3 sequence (whole entry): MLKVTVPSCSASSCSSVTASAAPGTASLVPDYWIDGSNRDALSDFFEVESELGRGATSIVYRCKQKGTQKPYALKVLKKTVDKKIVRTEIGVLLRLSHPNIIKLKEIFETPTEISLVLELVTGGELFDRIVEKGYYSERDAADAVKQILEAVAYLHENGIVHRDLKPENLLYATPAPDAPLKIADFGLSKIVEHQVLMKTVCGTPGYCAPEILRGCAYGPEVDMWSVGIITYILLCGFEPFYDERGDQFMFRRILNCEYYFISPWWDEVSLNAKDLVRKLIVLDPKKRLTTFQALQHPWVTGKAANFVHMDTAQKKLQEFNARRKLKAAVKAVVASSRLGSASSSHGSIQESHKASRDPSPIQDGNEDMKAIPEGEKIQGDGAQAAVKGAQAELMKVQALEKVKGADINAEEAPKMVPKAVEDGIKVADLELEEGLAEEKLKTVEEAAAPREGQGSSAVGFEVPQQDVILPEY

[4] = target: Glycogen synthase kinase-3 beta (Homo sapiens) (UniProt P49841); experiment: Inhibition of human full length GSK-3 beta expressed in baculovirus assessed as substrate phosphorylation using fluorescence-labelled peptides as substrate at […] after 90 mins by microfluidic peptide phosphorylation assay
Glycogen synthase kinase-3 beta (Homo sapiens), sequence (P49841 whole entry, looked up): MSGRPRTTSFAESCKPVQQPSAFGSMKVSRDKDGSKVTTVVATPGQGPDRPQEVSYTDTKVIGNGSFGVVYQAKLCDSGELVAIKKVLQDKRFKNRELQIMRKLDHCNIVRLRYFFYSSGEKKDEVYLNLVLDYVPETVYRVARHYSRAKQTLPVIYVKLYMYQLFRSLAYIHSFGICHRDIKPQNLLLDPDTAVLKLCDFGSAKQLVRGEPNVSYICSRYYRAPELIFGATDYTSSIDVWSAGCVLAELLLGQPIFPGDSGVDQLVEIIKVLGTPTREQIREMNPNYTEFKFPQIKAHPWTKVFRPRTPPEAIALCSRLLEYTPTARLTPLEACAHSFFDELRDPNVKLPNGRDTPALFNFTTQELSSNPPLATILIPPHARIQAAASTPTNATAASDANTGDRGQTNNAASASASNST

[5] = target: T4, Serine/threonine-protein kinase D2 (Homo sapiens) (UniProt Q9BZL6); details: 0.1 uM
T4 sequence (whole entry): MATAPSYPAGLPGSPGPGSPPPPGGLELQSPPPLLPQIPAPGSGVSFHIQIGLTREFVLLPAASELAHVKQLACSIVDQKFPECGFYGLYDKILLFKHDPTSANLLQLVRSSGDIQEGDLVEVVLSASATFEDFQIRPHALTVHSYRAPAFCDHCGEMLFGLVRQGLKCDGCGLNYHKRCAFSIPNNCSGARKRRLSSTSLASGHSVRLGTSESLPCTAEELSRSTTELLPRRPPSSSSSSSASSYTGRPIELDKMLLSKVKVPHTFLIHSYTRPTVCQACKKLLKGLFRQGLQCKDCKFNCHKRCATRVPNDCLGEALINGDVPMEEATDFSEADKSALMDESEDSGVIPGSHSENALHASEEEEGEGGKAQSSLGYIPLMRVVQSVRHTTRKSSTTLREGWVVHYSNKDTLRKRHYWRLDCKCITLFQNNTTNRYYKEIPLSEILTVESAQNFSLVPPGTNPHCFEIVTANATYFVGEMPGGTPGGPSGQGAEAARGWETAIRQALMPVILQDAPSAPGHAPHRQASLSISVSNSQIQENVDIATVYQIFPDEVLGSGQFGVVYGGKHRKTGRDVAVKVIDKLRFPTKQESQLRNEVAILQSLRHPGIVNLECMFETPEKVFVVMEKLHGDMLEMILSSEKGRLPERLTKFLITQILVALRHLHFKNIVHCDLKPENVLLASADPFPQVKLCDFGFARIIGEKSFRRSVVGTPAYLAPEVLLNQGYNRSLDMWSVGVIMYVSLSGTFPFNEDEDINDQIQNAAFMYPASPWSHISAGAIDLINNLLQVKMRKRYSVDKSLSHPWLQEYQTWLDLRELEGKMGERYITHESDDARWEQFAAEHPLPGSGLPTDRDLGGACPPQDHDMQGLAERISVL
Description: Inhibition of human full length PKD2 expressed in baculovirus assessed as substrate phosphorylation using fluorescence-labelled peptides as substrate at 0.1 uM after 90 mins by microfluidic peptide phosphorylation assay

[6] = target: Protein kinase C theta type (Homo sapiens) (UniProt Q04759); experiment: Inhibition of human truncated PKC theta expressed in baculovirus assessed as substrate phosphorylation using fluorescence-labelled peptides as substrate at 95 uM after 90 mins by microfluidic peptide phosphorylation assay
Protein kinase C theta type (Homo sapiens), sequence (Q04759 whole entry, looked up, the tested form may be a part): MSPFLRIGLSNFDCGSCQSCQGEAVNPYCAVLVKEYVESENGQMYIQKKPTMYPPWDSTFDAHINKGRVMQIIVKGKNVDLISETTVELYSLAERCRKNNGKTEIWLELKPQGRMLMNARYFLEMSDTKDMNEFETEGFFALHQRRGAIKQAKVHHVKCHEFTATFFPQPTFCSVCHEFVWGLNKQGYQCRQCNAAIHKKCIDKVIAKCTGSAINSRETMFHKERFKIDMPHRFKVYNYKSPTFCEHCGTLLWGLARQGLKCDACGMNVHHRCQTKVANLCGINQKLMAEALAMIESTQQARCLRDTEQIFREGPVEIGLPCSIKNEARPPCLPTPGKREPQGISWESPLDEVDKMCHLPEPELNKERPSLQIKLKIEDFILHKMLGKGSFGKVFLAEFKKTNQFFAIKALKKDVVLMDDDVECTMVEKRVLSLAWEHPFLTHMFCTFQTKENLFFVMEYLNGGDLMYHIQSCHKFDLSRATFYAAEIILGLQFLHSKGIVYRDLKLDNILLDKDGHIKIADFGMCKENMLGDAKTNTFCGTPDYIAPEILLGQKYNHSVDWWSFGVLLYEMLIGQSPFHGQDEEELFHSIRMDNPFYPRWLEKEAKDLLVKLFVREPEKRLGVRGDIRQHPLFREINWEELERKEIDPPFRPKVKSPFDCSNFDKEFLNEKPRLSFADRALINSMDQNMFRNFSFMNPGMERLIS

Which inhibition [1] does the source give for Clc1ccc(C2(c3ccc(-c4ncnc5[nH]cnc45)cc3)CCNCC2)cc1 here?
The inhibition was 67%.

For NC1CCN(c2ncnc3[nH]ccc23)CC1, which inhibition [2] is on record?
The inhibition was 14.5%.

What about the inhibition [3] of the same compound?
The inhibition was 12%.

How did the inhibition [4] turn out when COC(=O)c1cnc(Nc2cnc(C#N)cn2)cc1NCC1CCNCC1 was run?
The inhibition was 3.5%.

How did the inhibition [5] turn out when C[C@H](CN(C)C)Oc1nc(Nc2cc3cccc(Cl)c3cn2)cnc1C#N was run?
The inhibition was 0%.

For NCCc1ccc(-c2ncnc3[nH]cnc23)cc1, which inhibition [6] is on record?
The inhibition was 72%.
